Test [1] has as its system S. scabies 87-22 and ΔcebR. The test is described as follows: Thaxtomin production on ISP-4 plates with and without cellobiose supply (HPLC). The class given is cell-based, Streptomyces scabies. Particulars: ISP-4 medium; wild-type or ΔcebR background; FIGS. 8A and 8B. An excerpt:
FIGS. 8A-B illustrate genetic complementation of the cebR mutant scored by thaxtomin production on ISP-4 plates. […] Although pigmentation is not visible in the black and white photos, FIG. 8B is a graphic illustration HPLC analysis of thaxtomin production on the ISP-4 plates from FIG. 8A. […] Thaxtomin production is reverted back to wild-type levels when the mutation is genetically complemented (cebR mutant transformed with pRLIF8 containing the cebR gene and its promoter region).
The production of thaxtomin by both strains grown on ISP-4 with and without cellobiose supply was compared. […] The further increase in toxin production by the mutant upon addition of cellobiose is most likely due to the function of cellobiose as ligand of the transcriptional activator TxtR, which drives the expression of the thaxtomin biosynthetic genes txtA and txtB (Joshi et al. 2007) (FIG. 5).
Mycelial suspensions of S. scabies strains were prepared from 48-72 h-old TSB-grown cultures by pelleting the mycelia, washing twice with sterile water, and resuspending in 1 ml sterile water to obtain an optical density at 600 nm (OD600 mn) of 1.0. […] Thaxtomin A was purified from the supernatant and analyzed by HPLC as described previously (Johnson et al. 2007). […]

The test system of test [2] is S. scabies CebR regulator (CebR-His6). As to the kind of experiment: Electromobility gel shift assay (EMSA) with CebR-His6 pre-incubated with cellobiose and cellooligosaccharides. The class given is binding, Streptomyces scabies. The conditions noted are these: EMSA of FIG. 4; for impairment of the CebR DNA-binding ability (quantification of shifted bands): CebR-His6 pre-incubated with oligosaccharide, Cy5-labelled cbs probes 6 nM. The protocol:
Numbers 1 and 2 refer to EMSAs with free probes (6 nM) and with probes incubated with CebR-His6, respectively. Numbers 3 to 7 refer to EMSAs with CebR-His6 pre-incubated with oligosaccharides, i.e. cellobiose (3), cellotriose (4), cellotetraose (5), cellopentaose (6), and cellohexaose (7). Note that cellobiose (3) is the best oligosaccharide for preventing CebR interaction with all CebR-binding sites.
Electromobility gel shift assays (EMSAs) were performed in order to assess binding of the S. scabies CebR regulator (CebR^sca) to the in silico predicted cbs. The scab57761 gene was cloned into pET-22b and overexpressed in Escherichia coli Rosetta (DE3) cells. The resulting recombinant His-tagged CebR (CebR-His6) was purified from the IPTG-induced E. coli cytoplasmic extracts by Nickel-NTA affinity column. […] Under the same conditions, strong CebR-binding to cbs^cebE-R and cbs^bglC, which were used as positive controls of genes known to be directly controlled by CebR (Schlösser 2000; Marushima 2009), was observed (FIG. 3).
Experimental in vitro validations of predicted cis-acting elements allowed proposing a signaling pathway from cellobiose sensing and transport to thaxtomin biosynthesis (FIG. 5). […] Once inside the cell, cellobiose (and to a lesser extent cellotriose) prevents CebR-binding to cbs^txtR-A and cbs^txtB allowing expression of txtA, txtB and txtR. Consequently, TxtR complexed to cellobiose would be able to increase the expression levels of txtA and txtB, the thaxtomin biosynthetic genes.
EMSAs with 34-bp double-stranded probes (generated by PCR, Table 2) were performed using Cy5-labeled cbs probes (6 nM and 30 nM final concentration) and His6-tagged CebR at a final concentration between 0.08 and 3.2 μM in a total reaction volume of 50 μl. All reactions were carried out in EMSA buffer (10 mM Tris-HCl, pH 7.5, 1 mM dithiothreitol [DTT], 0.25 mM CaCl2, 0.5 mM MgCl2, 50 mM KCl, and 2% glycerol) containing excess of nonspecific DNA (salmon sperm DNA). After 15 min of incubation at room temperature, reaction mixtures were loaded onto a 1% (wt/vol) agarose gel. Bound and unbound probes were separated by gel electrophoresis for 30 min at 100 V at room temperature, and fluorescent DNA was visualized using a Typhoon Trio+ variable-mode imager (FRFC 2.4506.08).
In general terms: In EMSA bound probe runs differently from free probe, usually more slowly.

Molecules are shown by their SMILES.

As for `O=C[C@H](O)[C@@H](O)[C@H](O[C@@H]1O[C@H](CO)[C@@H](O)[C@H](O)[C@H]1O)[C@H](O)CO` [cellobiose], in test [1], the “effect of addition on thaxtomin production” value is given as “significant increase”. Besides, the “impairment of the CebR DNA-binding ability (quantification of shifted bands)” value (“impairment … (quantification of shifted bands)” for short) in test [2] was 56%. Moreover, in test [2] (compared with cellotriose to cellohexaose), the “allosteric effector inhibiting CebR from binding to its DNA targets” value is on record as “best allosteric effector”. `OC[C@H]1O[C@@H](O[C@H]2[C@H](O)[C@@H](O)[C@H](O[C@H]3[C@H](O)[C@@H](O)[C@H](O[C@H]4[C@H](O)[C@@H](O)[C@H](O[C@H]5[C@H](O)[C@@H](O)[C@H](O[C@H]6[C@H](O)[C@@H](O)C(O)O[C@@H]6CO)O[C@@H]5CO)O[C@@H]4CO)O[C@@H]3CO)O[C@@H]2CO)[C@H](O)[C@@H](O)[C@@H]1O` (some centres unmarked) [cellohexaose]: the “impairment … (quantification of shifted bands)” value in test [2] was 12%.

In the case of `OC[C@H]1O[C@@H](O[C@H]2[C@H](O)[C@@H](O)[C@H](O[C@H]3[C@H](O)[C@@H](O)C(O)O[C@@H]3CO)O[C@@H]2CO)[C@H](O)[C@@H](O)[C@@H]1O` (some centres unmarked) [cellotriose], the “impairment … (quantification of shifted bands)” value in test [2] is 20%.

The values are drawn from patent publication US10385372B2, “Methods for thaxtomin production and modified streptomyces with increased thaxtomin production” (priority 2014, dated 2019).
